Results as given in PubChem BioAssay AID2124 (Sanford-Burnham Center for Chemical Genomics, 2009).
pEC50: −log10 of the molar value. Inconclusive results are not listed. Calls of active or inactive are those of the source. The rule behind the calls is not given here; tested in MIN6 cells.

Experiments:
[1] = GFP-wavelength compound autofluorescence in cells – imaging, high-content imaging, artefact control, dose response (AID 2124); details: cells, GFP-channel autofluorescence, high-content imaging; cell count; at 10 µM;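 for cell count: cells exposed to compound for 48 hours before fixing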
[2] = tested on: cells, GFP-channel autofluorescence, high-content imaging; test: as above

Compound | cell count [1] [cells] | pEC50 [2] | EC50 [2]
N#C/C(=C/c1ccc(N2CCOCC2)o1)C(=O)Nc1ccccc1 | 3080 | 5.17 | 
CC(=O)c1c(N2CCOCC2)[nH]c(-c2ccccc2)nc1=S | 3510 | 5.98 | 
CN1CC=C2C(C#N)=C(N)C(C#N)(C#N)[C@H](c3ccoc3)[C@H]2C1 | 1690 |  | > 16 µM (inactive)
N#C/C(=C\c1ccc(N2CCOCC2)o1)C(=O)NCCc1ccccc1 | 3060 | 5.06 | 
CC(C)N1CC=C2C(C#N)=C(N)C(C#N)(C#N)C(c3ccccc3)C2C1 (configuration not stated) | 3040 | 5.09 | 
N#Cc1cccc(NC(=O)CSc2ccc3c4c(cccc24)C(=O)c2ccccc2-3)c1 | 3090 | 5.33 | 
O=C(O)c1cc(-c2ccc(/C=C3/SC(=S)N(Cc4ccccc4)C3=O)o2)ccc1Cl | 2840 | 5.13 | 
CC(C)NC(=O)/C(C#N)=C/c1ccc(N(C)C)o1 | 3230 |  | 14.3 µM (inactive)
CCCN1C(=O)/C(=C\C=C2\N(CC)c3ccccc3C2(C)C)SC1=S | 2900 | 5.10 | 
O=C(OCCN1C(=O)c2cccc3c(N4CCOCC4)ccc(c23)C1=O)c1ccc(Cl)cc1Cl | 1690 | 5.16 | 
CN1CC=C2C(C#N)=C(N)C(C#N)(C#N)[C@H](c3cccc(Cl)c3)C2C1 (some centres not stated) | 2960 | 5.04 | 
COc1ccc(CN2C(=O)/C(=C/c3ccc(-c4ccc(Cl)c(C(=O)O)c4)o3)SC2=S)cc1 | 3020 |  | > 16 µM (inactive)
C=CCN1C=CC(=CC=C(C#N)C#N)C=C1 | 2960 | 5.09 | 
CC(=O)Nc1cccc(C(=O)/C=C/c2ccc(N(C)C)cc2)c1 | 2940 |  | 12 µM (inactive)
CCN(CC)c1ccc2cc(-c3nc(-c4ccc(OC)cc4)cs3)c(=O)oc2c1 | 2750 |  | > 16 µM (inactive)
COc1cc2c3nnc(-c4ccc(F)cc4)c-3cn(Cc3ccccc3)c2cc1OC | 338 | 5.59 | 
COc1cc(OC)c(-c2c3cc(O)c(=O)cc-3oc3cc(O)c(O)cc23)cc1OC | 3000 |  | 13.5 µM (inactive)
COc1cc(N2CCCC2)c(OC)cc1/C=C(/C#N)c1cccc(F)c1 | 2910 | 5.19 | 
CCCN1CCc2c(sc(NC(=S)NC(=O)c3ccccc3)c2C#N)C1 | 3200 |  | 13.3 µM (inactive)
CC(=O)c1c(C)[nH]c(-c2ccccc2)nc1=S | 3120 | 5.63 | 
COc1ccccc1N/C=C/c1onc(C)c1[N+](=O)[O-] | 3140 | 5.10 | 

Compound | cell count [1] [cells] | pEC50 [2] | EC50 [2]
Nc1c(C(=O)Nc2nc3ccccc3s2)sc2nc(-c3cccs3)ccc12 | 217 | 5.06 | 
Cc1cc2nc3c(=O)n(C4CCCCC4)c(=O)[nH]c3nc2cc1N | 3150 |  | 11.8 µM (inactive)
CCCCOc1ccc(-c2cc(C(F)(F)F)c(C#N)c(SCC(=O)O)n2)cc1 | 3060 |  | 12.3 µM (inactive)
CCN1CCc2c(sc(NC(=S)NC(=O)c3ccc(Cl)cc3)c2C(N)=O)C1 | 3040 | 5.18 | 
N#C/C(=C/c1ccc(N2CCOCC2)o1)c1ccc(Cl)cc1 | 1320 | 5.14 | 
CC(=O)Nc1ccc(N=Cc2c(O)c(C(=O)Nc3ccccc3)cc3ccccc23)cc1 | 1540 |  | 11.1 µM (inactive)
COc1ccc(CN=Cc2[nH]c3ccc(Br)c(Cl)c3c2O)cc1 | 3150 |  | > 16 µM (inactive)
COC(=O)c1cc2c(-c3ccccc3)c(C)c3ccccn3c-2c1C(=O)OC | 2900 |  | 11.3 µM (inactive)
COc1cc([C@@H]2[C@H]3CNCC=C3C(C#N)=C(N)C2(C#N)C#N)ccc1OC(C)C | 3160 |  | 13.6 µM (inactive)
CN1/C(=C\C=C2/SC(=S)NC2=O)C(C)(C)c2ccccc21 | 147 | 5.21 | 
N#Cc1c(NC(=S)NC(=O)c2ccccc2)sc2c1CCN(CCc1ccccc1)C2 | 2330 | 5.24 | 
Cc1cc(/C=C2/C(=O)N(C)C(=S)N2C)ccc1N1CCCC1 | 2680 | 5.52 | 
Cc1oc(C)c2c(=O)ccc3c(c12)OC(N)=C(C#N)C3c1ccccc1Cl (configuration not stated) | 3240 |  | 14.8 µM (inactive)
COc1ccc(/C=C2\C(=O)NC(=S)N2C(=O)c2ccc(F)cc2)cc1 | 2980 |  | > 16 µM (inactive)
C=CCN1C(=O)/C(=C/c2ccc(N(C)C)cc2)S/C1=N\c1nnc(CC)s1 | 2900 | 5.27 | 
O=C1c2cccc3c(N4CCCCC4)ccc(c23)C(=O)N1c1ccccc1O | 3140 |  | 15.3 µM (inactive)
COc1ccc(C(=O)/C=C/c2ccc(N(C)C)cc2)c(OC)c1 | 2380 | 5.00 | 
CCN(CC)c1ccc2cc(C(=O)Nc3ccccn3)c(=O)oc2c1 | 3080 | 5.27 | 
CCOCCCNc1nc2c(C)cccn2c(=O)c1/C=C1\SC(=S)N(C(C)CC)C1=O (configuration not stated) | 2910 |  | > 16 µM (inactive)
N#C/C(=C\c1ccc(N2CCOCC2)o1)c1ccccc1 | 2130 |  | > 16 µM (inactive)
COc1cc2c(cc1OC)C1=CC(=O)C(=O)N1C(C)(C)C2 | 2990 | 5.24 | 

Compound | cell count [1] [cells] | pEC50 [2] | EC50 [2]
COc1cc([C@@H]2[C@H]3CN(C)CC=C3C(C#N)=C(N)C2(C#N)C#N)cc2c1OCO2 | 3070 | 5.03 | 
COc1cc(/C=C(\C#N)c2nc3ccccc3o2)ccc1O | 3540 | 5.58 | 
O=C(C1=C(O)C(=O)N(c2nccs2)C1c1ccccc1)c1cc2ccccc2o1 (configuration not stated) | 2920 | 5.07 | 
Cc1nonc1NC(=O)CSc1nc2c(C)cccc2cc1C#N | 3270 | 5.03 | 
Cc1cccn2c(=O)c(/C=C3\SC(=S)N(CC(C)C)C3=O)c(NCCCOC(C)C)nc12 | 2810 |  | > 16 µM (inactive)
CCCN1C(=O)S/C(=C/c2ccc(N3CCOCC3)o2)C1=O | 3210 | 5.27 | 
Nc1ccc2c(c1)Cc1cc([N+](=O)[O-])ccc1-2 | 2910 | 5.37 | 
Cc1ccnc(N/C=C(\C#N)c2nc(-c3cccc(Br)c3)cs2)c1 | 2880 | 5.05 | 
CCCNc1c(F)c(F)c2c(C)c3ccccc3nc2c1F | 3140 |  | 10.9 µM (inactive)
Cc1ccc(-c2cn3nc(-c4ccccc4)c(-c4ccccc4)nc3n2)cc1 | 3200 | 5.22 | 
Cc1cc2c(C(F)(F)F)cc(=O)oc2c2c1NCCC2 | 3250 | 5.17 | 
CCOC(=O)c1sc2cc([N+](=O)[O-])cc(SCC(C)C)c2c1N | 3070 | 5.91 | 
Oc1ccc(/C=N/Nc2ccnc3cc(Cl)ccc23)c(O)c1 | 1690 |  | 10.3 µM (inactive)
COc1ccc(/C=C2\CC/C(=C\c3ccc(OC)cc3OC)C2=O)c(OC)c1 | 3090 | 5.17 | 
O=[N+]([O-])c1ccc(N/N=C/c2ccc[nH]2)cc1 | 841 | 5.36 | 
N#CC1=C(N)C(C#N)(C#N)[C@H](c2ccoc2)[C@H]2CN(Cc3ccccc3)CC=C12 | 2630 |  | 10.3 µM (inactive)
CCN(CC)c1ccc(/C=C/C(=O)c2ccc(Br)cc2)cc1 | 2880 | 5.44 | 
Cc1ccc(N2C(=O)C3C(C(=O)c4ccccc4)=NN(c4ccccc4)C3C2=O)cc1 (configuration not stated) | 2980 |  | > 16 µM (inactive)
Nc1c(C(=O)c2ccccc2)sc2nsc(SCCN3CCCC3)c12 | 2210 | 5.10 | 
COc1ccc(NC(=O)/C(C#N)=C\c2ccc(N3CCOCC3)o2)cc1 | 3270 |  | 11.6 µM (inactive)
Cc1cc(N2CCCC2)ccc1/C=C1\NC(=S)N(C)C1=O | 2440 | 5.11 | 

Compound | cell count [1] [cells] | pEC50 [2] | EC50 [2]
O=C(O)c1ccccc1N/N=C/c1c(Sc2nnnn2-c2ccccc2)nc2ccccn2c1=O | 3260 |  | 10.7 µM (inactive)
CCN(CC)c1ccc2cc(C(N)=O)/c(=N\NC(=O)c3ccncc3)oc2c1 | 3100 | 5.03 | 
Cc1ccc(/C(C#N)=C\c2ccc(N3CCOCC3)o2)cc1 | 1110 |  | 10.3 µM (inactive)
CN1C(=O)C(=Cc2ccc(N3CCCCC3)o2)C(=O)N(C)C1=S | 2940 |  | > 16 µM (inactive)
COc1cccc(C2C3CN(C)CC=C3C(C#N)=C(N)C2(C#N)C#N)c1OC (configuration not stated) | 2400 | 5.13 | 
O=[N+]([O-])c1ccc(N2N=C(c3ccco3)CC2c2ccccc2)cc1 (configuration not stated) | 2840 | 5.20 | 
COc1ccc2c(C)cc(SCC(=O)N(C)C3CCS(=O)(=O)C3)nc2c1 (configuration not stated) | 3270 | 5.02 | 
Cc1cccn2c(=O)c(/C=C3\SC(=S)NC3=O)c(NCCCN3CCOCC3)nc12 | 2700 | 5.03 | 
COc1ccc2c(c1)NC(c1ccc(N(C)C)cc1)c1cccn1-2 (configuration not stated) | 2940 | 5.51 | 
CCCN1C(=O)/C(=C/c2c(N3CCNC(=O)C3CC(=O)OCC)nc3c(C)cccn3c2=O)SC1=S (configuration not stated) | 2790 | 5.25 | 
CCN(CC)c1ccc2cc(/C(N)=N/NC(=O)c3cccs3)c(=O)oc2c1 | 3050 | 5.05 | 
CCOC(=O)Cc1csc(NC(=O)c2sc3nc4c(C)cc(C)cc4cc3c2N)n1 | 2560 |  | 10.9 µM (inactive)
CCCN1C(=O)S/C(=C\c2ccc(N3CCOCC3)o2)C1=O | 194 |  | > 16 µM (inactive)
Cc1ccc(S(=O)(=O)CCSc2nc(C)cc(C(F)(F)F)c2C#N)cc1 | 2460 | 5.14 | 
Cc1oc(C)c2c(=O)ccc3c(c12)OC(N)=C(C#N)C3c1ccc(F)cc1 (configuration not stated) | 2880 |  | > 16 µM (inactive)
CCN(CC)c1ccc(/C=C(\C#N)C(=O)c2ccc(Br)cc2)cc1 | 2740 | 5.29 | 
O=c1c(Cl)c2oc3ccccc3nc-2c2ccccc12 | 2670 | 5.19 | 
CCCN1C=CC(=CC=C(C#N)C#N)C=C1 | 3220 | 5.11 | 
